How the values were obtained:
[1] = molecular target: T1, Integrin alpha-IIb/beta-3 (Homo sapiens, UniProt P05106+P08514); assay: Inhibition of fibrinogen (Fg) interaction with GPIIb/IIIa in gel filtered platelets; format: functional
[2] = molecular target: T1, Integrin alpha-IIb/beta-3; assay: Affinity for purified human platelet glycoprotein alpha IIb beta3 integrin receptor in ELISA
[3] = Inhibition of platelet aggregation in citreated human platelet rich plasma (PRP)

T1 sequence (P05106 27-788 limits assumed): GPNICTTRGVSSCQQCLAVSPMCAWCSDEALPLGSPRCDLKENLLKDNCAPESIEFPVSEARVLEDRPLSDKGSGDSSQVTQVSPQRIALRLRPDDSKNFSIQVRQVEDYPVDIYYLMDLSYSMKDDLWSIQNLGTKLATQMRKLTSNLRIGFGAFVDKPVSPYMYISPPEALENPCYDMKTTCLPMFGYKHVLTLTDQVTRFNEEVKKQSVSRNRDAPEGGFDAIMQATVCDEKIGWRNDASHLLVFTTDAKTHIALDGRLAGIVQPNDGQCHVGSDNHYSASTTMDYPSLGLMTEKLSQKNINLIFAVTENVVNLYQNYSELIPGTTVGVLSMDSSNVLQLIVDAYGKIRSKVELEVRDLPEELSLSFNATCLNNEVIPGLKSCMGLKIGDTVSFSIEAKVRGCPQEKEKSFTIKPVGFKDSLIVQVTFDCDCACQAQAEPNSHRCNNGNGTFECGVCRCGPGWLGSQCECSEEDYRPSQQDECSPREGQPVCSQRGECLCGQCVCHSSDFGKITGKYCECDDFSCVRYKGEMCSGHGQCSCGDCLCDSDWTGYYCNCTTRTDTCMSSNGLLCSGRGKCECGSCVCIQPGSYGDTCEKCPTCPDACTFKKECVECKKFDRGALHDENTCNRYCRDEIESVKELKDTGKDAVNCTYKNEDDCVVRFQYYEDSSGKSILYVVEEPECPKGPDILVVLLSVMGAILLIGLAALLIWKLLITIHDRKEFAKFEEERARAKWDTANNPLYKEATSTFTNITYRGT
T1 sequence (P08514 32-887 limits assumed): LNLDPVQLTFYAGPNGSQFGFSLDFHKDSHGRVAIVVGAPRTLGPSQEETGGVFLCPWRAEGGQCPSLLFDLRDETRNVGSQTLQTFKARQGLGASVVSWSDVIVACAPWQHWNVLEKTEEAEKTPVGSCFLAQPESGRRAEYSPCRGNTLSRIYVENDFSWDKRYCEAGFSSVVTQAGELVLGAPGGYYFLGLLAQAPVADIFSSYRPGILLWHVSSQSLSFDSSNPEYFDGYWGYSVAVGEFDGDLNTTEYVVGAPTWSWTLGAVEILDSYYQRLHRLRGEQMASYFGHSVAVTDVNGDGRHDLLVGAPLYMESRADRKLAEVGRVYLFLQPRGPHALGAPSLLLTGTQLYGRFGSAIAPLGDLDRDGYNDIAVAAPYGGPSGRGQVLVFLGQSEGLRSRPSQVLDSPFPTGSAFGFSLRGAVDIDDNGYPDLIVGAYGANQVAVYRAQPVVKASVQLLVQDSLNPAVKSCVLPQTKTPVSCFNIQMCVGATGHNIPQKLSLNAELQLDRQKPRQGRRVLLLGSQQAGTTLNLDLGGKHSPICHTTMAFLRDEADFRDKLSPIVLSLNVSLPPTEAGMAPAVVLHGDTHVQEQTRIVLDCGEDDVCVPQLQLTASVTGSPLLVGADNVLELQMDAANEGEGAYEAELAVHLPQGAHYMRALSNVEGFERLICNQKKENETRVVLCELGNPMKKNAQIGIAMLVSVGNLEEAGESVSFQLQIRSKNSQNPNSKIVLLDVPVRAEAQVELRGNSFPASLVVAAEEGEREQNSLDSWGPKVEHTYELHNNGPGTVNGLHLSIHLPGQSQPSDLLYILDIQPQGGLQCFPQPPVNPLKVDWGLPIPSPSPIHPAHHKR
T1 sequence (P08514 891-1039 limits assumed): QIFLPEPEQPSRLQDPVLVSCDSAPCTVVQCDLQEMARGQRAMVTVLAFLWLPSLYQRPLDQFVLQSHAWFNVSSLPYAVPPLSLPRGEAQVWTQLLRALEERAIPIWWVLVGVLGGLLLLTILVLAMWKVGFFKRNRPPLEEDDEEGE

Row | Structure (SMILES) | IC50 [1] [nM] | IC50 [2] [nM] | IC50 [3] [nM]
1 | CCOP(=O)(NC(CNC(=O)CC1CC(c2ccc(C(=N)N)cc2)=NO1)C(=O)O)OCC (stereo not given) | 102 | 1.7 | –
2 | CCCCOC(=O)N[C@@H](CNC(=O)C[C@H]1CC(c2ccc(C(=N)N)cc2)=NO1)C(=O)O | 21 | – | 50
3 | N=C(N)c1ccc(C2=NOC(CC(=O)NCC(NP(=O)(O)O)C(=O)O)C2)cc1 (stereo not given) | 229 | 2.6 | –
4 | COP(=O)(NC(CNC(=O)CC1CC(c2ccc(C(=N)N)cc2)=NO1)C(=O)O)OC (stereo not given) | 54 | 0.55 | –

Second part, the compound after the results:

Row | IC50 [1] [nM] | IC50 [2] [nM] | IC50 [3] [nM] | Structure (SMILES)
5 | 140 | – | – | N=C(N)c1ccc(C2=NOC(CC(=O)NCCC(=O)O)C2)cc1 (stereo not given)
6 | 46 | 1.5 | – | C=CCOP(=O)(NC(CNC(=O)CC1CC(c2ccc(C(=N)N)cc2)=NO1)C(=O)O)OCC=C (stereo not given)
7 | 55 | 1.2 | – | CCCCOP(=O)(NC(CNC(=O)CC1CC(c2ccc(C(=N)N)cc2)=NO1)C(=O)O)OCCCC (stereo not given)
8 | 73 | 0.86 | – | CC(C)OP(=O)(NC(CNC(=O)CC1CC(c2ccc(C(=N)N)cc2)=NO1)C(=O)O)OC(C)C (stereo not given)

Reference: ChEMBL document CHEMBL1132008, “Isoxazoline GPIIb/IIIa antagonists bearing a phosphoramidate” (Bioorg Med Chem Lett, 1999)
